In PMC8306964 (2021):
Peptide text beside a SMILES is read from it. * marks the point of attachment. OBn = c1ccc(CO*)cc1

Experiments:
[1] = tested on: pApU (RNA, polymer) A/U; assay: fluorescence titration, Scatchard (McGhee-von Hippel) fit; conditions: Na+ (sodium cacodylate, 50 mM); pH 7.0, 25 °C, <1% DMSO; n fixed 0.3; polynucleotide as phosphates; error half log unit; per base
[2] = tested on: dG12-dC12 (DNA, duplex) GGGGGGGGGGGG/CCCCCCCCCCCC; assay: HPLC retention shift; conditions: NH4+ (ammonium acetate, 100 mM); pH 7.0; retention retarded by about 0.3 min with compound; no alkylation on irradiation
[3] = tested on: p(dAdT) (DNA, polymer) AT; assay: fluorescence titration, Scatchard (McGhee-von Hippel) fit; conditions: Na+ (sodium cacodylate, 50 mM); pH 7.0, 25 °C, <1% DMSO; n fixed 0.3; polynucleotide as phosphates; error half log unit; per base
[4] = tested on: dA10-dT10 (DNA, duplex) AAAAAAAAAA/TTTTTTTTTT; assay: HPLC retention shift; conditions: NH4+ (ammonium acetate, 100 mM); pH 7.0; signal about 0.5 min earlier with compound
[5] = tested on: dA10-dT10 (DNA, duplex) AAAAAAAAAA/TTTTTTTTTT; assay: photoalkylation (300 nm irradiation), HPLC; conditions: NH4+ (ammonium acetate, 100 mM); covalent; pH 7.0; 15 or 60 min; new broad signal at about 16.5 min
[6] = tested on: p(dGdC) (DNA, polymer) GC; assay: fluorescence titration, Scatchard (McGhee-von Hippel) fit; conditions: Na+ (sodium cacodylate, 50 mM); pH 7.0, 25 °C, <1% DMSO; n fixed 0.3; polynucleotide as phosphates; error half log unit; per base

log Ka [1]	binding [2]	log Ka [3]	binding [4]	binding [5]	log Ka [6]	Compound
6.0 log (M^-1)	yes	5.9 log (M^-1)	yes	yes	6.4 log (M^-1)	CN(C)Cc1cc(C[C@H](NC(=O)[C@H](Cc2c[nH]c3ccccc23)NC(=O)[C@@H](N)Cc2c[nH]c3ccccc23)C(=O)OCc2ccccc2)ccc1O
					6.5 log (M^-1)	N[C@@H](Cc1c[nH]c2ccccc12)C(=O)N[C@@H](Cc1c[nH]c2ccccc12)C(=O)N[C@@H](Cc1ccc(O)cc1)C(=O)OCc1ccccc1 (H-Trp-Trp-Tyr-OBn)
